These results are taken from US20050222183A1, “Combination of zd6474, an inhibitor of the vascular endothelial growth factor receptor, with radiotherapy in the treatment of cancer” (priority 2002, published 2005).

For assay [1], the system named is Calu-6 (lung carcinoma) tumour xenografts. As to the kind of experiment: Calu-6 xenograft model: ZD6474 25 mg/kg given after ionising radiation. Format: in vivo, female Alderley Park nude mice. How it is done:
Calu-6 (lung carcinoma) cells were obtained from the American Type Culture Collection (Manassas, Va.). All cell culture reagents, where not specified, were obtained from Life Technologies, Paisley, UK. Cells were maintained as exponentially growing monolayers in Eagle's Minimal Essential Medium (EMEM) containing 10% FCS (Labtech International, Ringmer, UK), 2 mM L-glutamine (Sigma Chemical Co., Poole, UK), 1% sodium pyruvate (100 mM) and 1% non-essential amino acids. Cells were periodically screened for the presence of microplasma in culture, and analysed for 15 types of virus in a mouse antibody production test (AstraZeneca Central Toxicology Laboratories, Alderley Park, UK) prior to routine use in vivo.
Calu-6 cells (2×10^7 cells/ml) were prepared for implantation in a mixture of 50% (v/v) matrigel (Fred Baker, Liverpool, UK) in serum free Roswell Park Memorial Institute (RPMI)-1640 media. Tumour xenografts were established by subcutaneously injecting 0.1 ml of the cell suspension (i.e. 2×10^6 cells/mouse) into female Alderley Park nude mice (nu/nu genotype; 8-10 weeks of age). Once a palpable tumour was evident, tumour volume was assessed daily by calliper measurement and calculated using the formula, length×width×height.
Mice were randomised into groups of eight, prior to treatment, when tumours measured 225-315 mm^3. Ionising radiation, where given, was administered at a dose rate of 2 Gy per min to unanaesthetised mice restrained in polyvinyl jigs with lead shielding and a cut away section to allow local irradiation of the tumour by the unilateral beam (Pantac X-ray set). Jigs were turned through 180° halfway through the radiation exposure time to provide a uniform dosing. Radiation was administered either as a single dose (5 Gy on day 1) or by multiple daily dosing (2 Gy/day on days 1-3). Thirty minutes after the last dose of radiation, ZD6474 (25 mg/kg), or vehicle, was administered by oral gavage (0.1 ml/10 g body weight) and then once-daily thereafter for a further 13 days (i.e. 14 days of oral treatment in total). ZD6474 was prepared as a suspension in 1% polysorbate 80 (i.e. a 1% (v/v) solution of polyoxyethylene (20) sorbitan mono-oleate in deionised water). Mice were humanely killed when the relative volume of their tumour reached four times that at the initiation of therapy (RTV4). A two-tailed two-sample t-test was used to evaluate the significance of the results obtained.

For a further assay, the system named is Calu-6 tumours. As to the kind of experiment: Calu-6 xenograft model: schedules, ZD6474 50 mg/kg concurrent or sequential with radiotherapy. Format: in vivo, mice. To be noted: for Growth delay (days ± SE): RTV4 relative to control. How it is done:
In an analogous experiment using the Calu-6 xenograft model described hereinbefore different schedules were investigated.
Mice bearing Calu-6 tumours (220-300 mm^3) were randomized into groups of eight, to receive either ZD6474 (50 mg/kg p.o. once daily) or vehicle only (1% polysorbate in deionized water) for the duration of the experiment. ZD6474, or vehicle, was also administered with or without radiotherapy (3×2 Gy at 24-hour intervals during the first 3 days of treatment). Where mice received 50 mg/kg ZD6474 plus radiation therapy, two treatment schedules were examined. • a) Concurrent combination treatment: ZD6474 dosing given 2 hours prior to the first dose of radiation; and • b) Sequential combination treatment: ZD6474 dosing given 30 minutes after the last dose of radiotherapy. […]
Treatment efficacy was assessed by measuring the time for tumours to quadruple in volume (RTV4) from their pretreatment size and calculating the relative growth delay (i.e. comparing RTV4 values from individual treated groups, with that of the control).

Structures are written as SMILES.

In the case of `COc1cc2c(Nc3ccc(Br)cc3F)ncnc2cc1OCC1CCN(C)CC1` [ZD6474, 4-(4-bromo-2-fluoroanilino)-6-methoxy-7-(1-methylpiperidin-4-ylmethoxy)quinazoline], the “RTV4” value was found to be 28.1 days in assay [1] (3 × 2Gy (days 1-3), then ZD6474 25 mg/kg/day oral for 14 days post-irradiation); 25.5 days in assay [1] (5 Gy single dose on day 1, then ZD6474 25 mg/kg/day oral for 14 days post-irradiation); 12.1 days in assay [1] (ZD6474 25 mg/kg/day oral for 14 days, no radiation, time for tumour to reach four times its volume at initiation of therapy). The “Therapeutic effect of radiation plus ZD6474 versus either therapy alone” value in assay [1] (5 Gy or 3×2 Gy plus ZD6474 25 mg/kg) was “better therapeutic effect than either therapy alone”. For the same compound, the “Growth delay of combination versus either single treatment” value in the assay with Calu-6 tumours (50 mg/kg ZD6474 combined with 3×2 Gy radiation) is reported as “significantly greater than that of either single treatment alone”. For the same compound, the “RTV4 (days ± SE)” value with Calu-6 tumours (50 mg/kg ZD6474 p.o. once daily, no radiation, n = 8) is given as 17 ± 1.0 days; with Calu-6 tumours (3 × 2 Gy plus 50 mg/kg ZD6474 (concurrent: dosing begun 2 hours prior to first dose of radiation)), 30 ± 1.0 days; in the assay on Calu-6 tumours (3 × 2 Gy plus 50 mg/kg ZD6474 (sequential: dosing begun 30 minutes after last dose of radiotherapy)) it was 44 ± 0.9 days. Also, the “Growth delay (days ± SE)” value in the assay with Calu-6 tumours (50 mg/kg ZD6474 p.o. once daily, no radiation) turned out to be 9 ± 1.1 days; in the assay on Calu-6 tumours (3 × 2 Gy plus 50 mg/kg ZD6474 (concurrent)) it was 22 ± 1.1 days; with Calu-6 tumours (3 × 2 Gy plus 50 mg/kg ZD6474 (sequential)) it was 36 ± 1.0 days. In addition, in the assay with Calu-6 tumours (3×2 Gy radiation and 50 mg/kg ZD6474), the “Tumour growth inhibition, sequential versus concurrent combination” value is reported as “inhibited tumour growth significantly more than when the same agents were combined concurrently”. Besides, the “Antitumour effect of sequential combination versus sum of individual therapies” value in the assay on Calu-6 tumours (sequential 3×2 Gy radiation and 50 mg/kg ZD6474) is on record as “greater than the sum of the growth delays induced by the individual therapies”.
